Measured values published in patent US20100316575A1, “MODULATING BODY WEIGHT” (priority 2008, published 2010).

Target: T1, KATP channels (Mus musculus, UniProt P70170+Q61743)
T1 construct: Pacing perfused hearts isolated from WT and Kir6.2-KO mice; from tissue; host or cells: isolated, retrogradely perfused and paced hearts of wild-type mice
Assay: Rate-dependent action potential duration (APD90) in paced, perfused isolated hearts
Set-up: species or system mice
Settings: isolated perfused paced WT mouse hearts, KATP-channel blockade with glyburide, FIG. 5B
Text: FIG. 5. […] The KATP channel-dependent component in rate-dependent action potential shortening was verified in WT hearts following KATP-channel blockade with the sulfonylurea blocker glyburide (FIG. 5B). […] Maximal oxygen consumption (V O2max), corresponding to the highest tolerated workload, reflects the maximal rate of energy production and the ability of the cardiovascular system to supply oxygen. Kir6.2-KO and WT mice achieved the same level of V O2max reflecting their equivalent oxidative phosphorylation potential. […] This was associated with high lactate levels in the blood (FIG. 5E), indicating compromise of the cardiovascular system. Activity-related energy expenditure largely reflects the performance of cardiac and skeletal muscle, tissues with abundant KATP channel expression. Accordingly, cardiac muscle was used as a model of striated musculature. As cardiac function and associated energy consumption depends on electrical determinants, the contribution of KATP channels in heart rate-dependent modulation of action potential duration and rate of oxygen consumption were tested. Telemetry recording of cardiac activity defined that both WT and Kir6.2-KO mice display a heart rate profile with a 400 to 800 beats per minute range (FIG. 5A). […]

T1 sequence (Q61743 whole entry, the tested form may be a part): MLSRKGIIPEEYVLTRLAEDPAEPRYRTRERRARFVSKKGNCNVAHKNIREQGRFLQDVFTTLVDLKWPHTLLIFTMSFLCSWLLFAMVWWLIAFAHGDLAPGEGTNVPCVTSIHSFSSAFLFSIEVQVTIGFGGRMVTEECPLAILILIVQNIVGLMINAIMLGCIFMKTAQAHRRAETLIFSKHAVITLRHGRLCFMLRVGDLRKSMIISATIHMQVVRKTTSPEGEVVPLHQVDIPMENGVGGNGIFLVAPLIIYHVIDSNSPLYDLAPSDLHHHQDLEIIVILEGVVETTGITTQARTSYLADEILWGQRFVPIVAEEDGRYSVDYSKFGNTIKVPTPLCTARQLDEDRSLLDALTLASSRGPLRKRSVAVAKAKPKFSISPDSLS
T1 sequence (P70170 whole entry, the tested form may be a part): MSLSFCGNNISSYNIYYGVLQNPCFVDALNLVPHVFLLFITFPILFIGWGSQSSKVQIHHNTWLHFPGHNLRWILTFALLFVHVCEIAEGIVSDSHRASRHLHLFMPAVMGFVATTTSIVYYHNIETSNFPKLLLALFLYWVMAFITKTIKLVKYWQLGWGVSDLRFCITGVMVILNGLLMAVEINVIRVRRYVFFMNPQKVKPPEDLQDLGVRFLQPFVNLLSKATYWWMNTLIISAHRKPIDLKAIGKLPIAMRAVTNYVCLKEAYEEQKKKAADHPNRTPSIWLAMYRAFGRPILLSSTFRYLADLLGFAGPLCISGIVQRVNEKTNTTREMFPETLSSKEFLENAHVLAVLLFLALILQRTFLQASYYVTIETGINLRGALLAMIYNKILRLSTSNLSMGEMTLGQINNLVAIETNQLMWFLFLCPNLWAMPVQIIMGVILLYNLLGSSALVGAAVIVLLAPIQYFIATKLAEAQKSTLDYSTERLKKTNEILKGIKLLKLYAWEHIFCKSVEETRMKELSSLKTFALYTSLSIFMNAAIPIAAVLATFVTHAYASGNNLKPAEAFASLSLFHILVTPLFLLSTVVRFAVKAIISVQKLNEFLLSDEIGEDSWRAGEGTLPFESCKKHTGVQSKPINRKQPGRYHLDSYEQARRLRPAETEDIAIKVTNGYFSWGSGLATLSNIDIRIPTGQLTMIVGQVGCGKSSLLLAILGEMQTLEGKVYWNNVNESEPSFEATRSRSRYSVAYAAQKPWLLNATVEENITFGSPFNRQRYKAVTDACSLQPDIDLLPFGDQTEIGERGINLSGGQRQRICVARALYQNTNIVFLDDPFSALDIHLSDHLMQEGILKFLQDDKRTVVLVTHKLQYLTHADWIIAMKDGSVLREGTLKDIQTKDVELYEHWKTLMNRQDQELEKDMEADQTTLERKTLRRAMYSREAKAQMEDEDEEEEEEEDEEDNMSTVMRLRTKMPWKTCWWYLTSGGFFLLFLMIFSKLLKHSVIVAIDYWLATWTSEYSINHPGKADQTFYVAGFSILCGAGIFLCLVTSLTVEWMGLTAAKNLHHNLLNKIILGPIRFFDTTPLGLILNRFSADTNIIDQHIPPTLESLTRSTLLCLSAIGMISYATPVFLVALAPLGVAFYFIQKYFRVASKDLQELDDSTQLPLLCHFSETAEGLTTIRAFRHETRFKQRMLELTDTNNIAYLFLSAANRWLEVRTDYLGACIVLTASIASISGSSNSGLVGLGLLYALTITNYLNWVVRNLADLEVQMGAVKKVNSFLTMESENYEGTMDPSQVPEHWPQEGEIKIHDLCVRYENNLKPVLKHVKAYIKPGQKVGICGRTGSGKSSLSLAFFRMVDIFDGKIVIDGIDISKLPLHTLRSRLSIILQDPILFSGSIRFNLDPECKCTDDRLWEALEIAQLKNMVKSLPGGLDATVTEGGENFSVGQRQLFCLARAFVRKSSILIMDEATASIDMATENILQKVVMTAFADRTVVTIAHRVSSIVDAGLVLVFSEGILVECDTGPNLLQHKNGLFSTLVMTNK

Structure (SMILES): COc1ccc(Cl)cc1C(=O)NCCc1ccc(S(=O)(=O)NC(=O)NC2CCCCC2)cc1 [glyburide]
- KATP channel-dependent component in rate-dependent action potential shortening (monophasic APD90): verified
